Assay results taken from patent US8163909B2, “Substituted hydroxyethyl amine compounds as beta-secretase modulators and methods of use” (Amgen Inc., priority 2007, dated 2012).
Where two headings read alike, the source gives them in different places.

Experiments:
[1] = molecular target: Beta Secretase enzyme (BACE) (Homo sapiens, UniProt P56817); assay: In vitro enzymatic BACE FRET (fluorescence resonance energy transfer) assay; type: biochemical;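 also: fluorescence read after 1 h with 50 nM quenched peptide substrate spanning the BACE cleavage site, in pH 4.2 acetate buffer containing 10% DMSO and nonionic detergent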
[2] = system: Aβ40 in conditioned medium of cells stably expressing Amyloid Precursor Protein (APP); assay: In vitro BACE cell-based assay (Aβ40 in conditioned medium, sandwich ELISA); details: Homo sapiens;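 also: compounds added as a dilution series, secreted peptide quantified by europium time-resolved fluorescence readout, potency fitted from percent of control versus compound concentration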
[3] = molecular target: CYP3A4 (CYP3A) (Homo sapiens, UniProt P08684); assay: in vitro; details: microsomes, pH 7.4;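 also: inhibition of CYP3A-mediated 1-hydroxymidazolam formation after 10 min incubation with NADPH, quantified by HPLC MS relative to metabolite produced without test compound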
[4] = Microsomal stability assay, rat liver microsomes;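 also: rat liver microsomes (0.25 mg/mL) with about 1 µM compound plus 1 mM NADPH, pH 7.4, 37 °C for 30 min, parent left measured by LC-MS/MS against 0 min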
[5] = Microsomal stability assay, human liver microsomes;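 also: pooled human liver microsomes at 0.25 mg/mL with 1 µM compound and NADPH at 37 °C, pH 7.4, for 30 min, unchanged parent quantified by LC-MS/MS against the 0 min sample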
[6] = molecular target: CYP2D6 (Homo sapiens, UniProt P10635); assay: CYP2D6 inhibition assay (bufuralol, pooled human liver microsomes)
[7] = BACE enzyme assay IC50, read-out: BACE1 FRET assay
[8] = HEK293, HEK cell-based assay IC50, read-out: HEK cell assay
[9] = 2D6 IC50 (uM), CYP2D6 inhibition
[10] = read-out: BACE1 FRET assay (IC50)
[11] = HEK293, HEK cells, read-out: HEK cell assay (IC50)
[12] = BACE enzyme assay, IC50's in uM, read-out: BACE1 FRET assay
[13] = HEK293, HEK cell-based assay, IC50's in uM, read-out: HEK cell assay
[14] = 2D6 IC50 (uM), CYP enzyme inhibition
[15] = BACE enzyme assay, read-out: BACE1 FRET assay
[16] = HEK293, HEK cells, read-out: HEK cell assay

Chain of CYP3A4 (CYP3A) (P08684 2-503): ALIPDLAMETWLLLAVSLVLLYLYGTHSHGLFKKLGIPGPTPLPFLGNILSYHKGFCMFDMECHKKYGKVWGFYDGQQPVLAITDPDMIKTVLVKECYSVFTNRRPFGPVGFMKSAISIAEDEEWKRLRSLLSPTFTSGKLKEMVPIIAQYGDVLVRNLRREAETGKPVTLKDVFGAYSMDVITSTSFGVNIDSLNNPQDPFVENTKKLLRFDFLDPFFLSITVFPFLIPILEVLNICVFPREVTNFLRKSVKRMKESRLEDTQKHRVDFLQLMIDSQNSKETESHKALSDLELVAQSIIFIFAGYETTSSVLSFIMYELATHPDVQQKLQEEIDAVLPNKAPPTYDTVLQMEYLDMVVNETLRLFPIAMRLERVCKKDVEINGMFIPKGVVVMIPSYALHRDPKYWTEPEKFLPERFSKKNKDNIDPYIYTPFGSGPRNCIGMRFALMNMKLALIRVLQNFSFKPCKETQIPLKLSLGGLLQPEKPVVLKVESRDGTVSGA
Chain of CYP2D6 (P10635 whole entry): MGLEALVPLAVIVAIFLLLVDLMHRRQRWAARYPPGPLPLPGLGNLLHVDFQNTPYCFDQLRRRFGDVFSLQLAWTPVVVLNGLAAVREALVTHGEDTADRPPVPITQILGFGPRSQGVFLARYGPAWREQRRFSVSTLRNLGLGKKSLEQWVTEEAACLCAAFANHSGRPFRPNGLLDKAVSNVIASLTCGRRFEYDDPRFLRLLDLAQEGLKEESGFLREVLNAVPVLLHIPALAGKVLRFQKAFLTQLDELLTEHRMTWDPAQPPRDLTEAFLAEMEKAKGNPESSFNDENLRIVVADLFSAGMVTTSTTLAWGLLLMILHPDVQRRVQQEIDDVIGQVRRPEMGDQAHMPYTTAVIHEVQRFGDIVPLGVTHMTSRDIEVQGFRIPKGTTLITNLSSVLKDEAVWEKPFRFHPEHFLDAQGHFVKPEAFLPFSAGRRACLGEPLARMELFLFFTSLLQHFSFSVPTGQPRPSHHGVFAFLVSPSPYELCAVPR
Chain of Beta Secretase enzyme (BACE) (P56817 46-501): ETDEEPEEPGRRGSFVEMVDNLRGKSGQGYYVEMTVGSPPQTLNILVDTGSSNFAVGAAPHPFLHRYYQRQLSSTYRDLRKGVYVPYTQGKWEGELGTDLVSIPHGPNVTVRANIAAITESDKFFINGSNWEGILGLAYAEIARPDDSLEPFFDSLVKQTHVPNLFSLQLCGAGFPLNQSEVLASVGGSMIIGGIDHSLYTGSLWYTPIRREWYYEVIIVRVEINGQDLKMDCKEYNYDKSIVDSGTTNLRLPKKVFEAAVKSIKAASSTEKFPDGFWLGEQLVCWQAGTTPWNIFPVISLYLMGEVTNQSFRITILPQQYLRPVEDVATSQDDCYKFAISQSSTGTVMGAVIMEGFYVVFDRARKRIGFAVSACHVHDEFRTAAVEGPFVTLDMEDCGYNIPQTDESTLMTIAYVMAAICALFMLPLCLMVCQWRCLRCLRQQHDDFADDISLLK

| Structure (SMILES) | IC50 [1, 7] [µM] | IC50 [2, 8] [µM] | IC50 [3] [nM] | RLM ([4]; rat liver microsomes) [µL/min/mg] | HLM ([5]; human liver microsomes) [µL/min/mg] | IC50 [6, 9] [µM] | IC50 [1, 10] [µM] | IC50 [2, 11] [µM] | IC50 ([6]; 2D6 IC50, CYP2D6 inhibition) [µM] | IC50 [1, 12] [µM] | IC50 [2, 13] [µM] | RLM ([4]; rat liver microsomal data) [µL/min/mg] | HLM ([5]; human liver microsomal data) [µL/min/mg] | IC50 [6, 14] [µM] | IC50 [1, 15] [µM] | IC50 [2, 16] [µM] |
| --- | --- | --- | --- | --- | --- | --- | --- | --- | --- | --- | --- | --- | --- | --- | --- | --- |
| CC(=O)N[C@@H](Cc1ccc(F)c(-n2ccnc2)c1)[C@H](O)CN[C@H]1CC2(CCC2)Oc2ncc(CC(C)(C)C)cc21 [Example 426, N-((1S,2R)-3-(((4′S)-6′-(2,2-dimethylpropyl)-3′,4′-dihydrospiro[cyclobutane-1,2′-pyrano[2,3-b]pyridin]-4′-yl)amino)-1-(4-fluoro-3-(1H-imidazol-1-yl)benzyl)-2-hydroxypropyl)acetamide] | 0.031 | 0.011 | ≤ 30 | 14 | 22 | 0.1 |  |  |  |  |  |  |  |  |  |  |
| CC(=O)N[C@@H](Cc1ccc(F)c(-c2ncc[nH]2)c1)[C@H](O)CN[C@H]1CC2(CCC2)Oc2ncc(CC(C)(C)C)cc21 [Example 428, N-((2S,3R)-4-((S)-2,2-spirocyclobutyl-6-neopentyl-3,4-dihydro-2H-pyrano[2,3-b]pyridin-4-ylamino)-1-(4-fluoro-3-(1H-imidazol-2-yl)phenyl)-3-hydroxybutan-2-yl)acetamide] | 0.061 | 0.013 | 300 | 124 | 225 | 1.3 |  |  |  |  |  |  |  |  |  |  |
| CC(=O)N[C@@H](Cc1cccc(-c2ncc[nH]2)c1)[C@H](O)CN[C@H]1CC2(CCC2)Oc2ncc(CC(C)(C)C)cc21 [Example 429, N-((2S,3R)-1-(3-(1H-imidazol-2-yl)phenyl)-4-((S)-2,2-spirocyclobutyl-6-neopentyl-3,4-dihydro-2H-pyrano[2,3-b]pyridin-4-ylamino)-3-hydroxybutan-2-yl)acetamide] | 3.59 | 0.6 | 1300 | 37 | 88 | 0.5 |  |  |  |  |  |  |  |  |  |  |
| CC(=O)N[C@@H](Cc1ccc(F)c(-c2ccco2)c1)[C@H](O)CN[C@H]1CC2(CCC2)Oc2ccc(CC(C)(C)C)cc21 [Example 432, N-((2S,3R)-4-((S)-2,2-spirocyclobutyl-6-neopentyl-3,4-dihydro-2H-chromen-4-ylamino)-1-(4-fluoro-3-(furan-2-yl)phenyl)-3-hydroxybutan-2-yl)acetamide] |  |  | 1500 | 323 | 280 |  | 0.006 | 0.332 | 3.1 |  |  |  |  |  |  |  |
| CC(=O)N[C@@H](Cc1cc(F)cc(-c2ccncc2)c1)[C@H](O)CN[C@H]1CC2(CCC2)Oc2ccc(CC(C)(C)C)cc21 [Example 433, N-((2S,3R)-4-((S)-2,2-spirocyclobutyl-6-neopentyl-3,4-dihydro-2H-chromen-4-ylamino)-1-(3-fluoro-5-(pyridin-4-yl)phenyl)-3-hydroxybutan-2-yl)acetamide] |  |  | 1100 | 590 | 492 |  | 0.021 | 0.038 | 0.2 |  |  |  |  |  |  |  |
| COCC(=O)N[C@@H](Cc1ccc(-c2nccs2)cc1)[C@H](O)CN[C@H]1CC2(CCC2)Oc2ncc(CC(C)C)cc21 [Example 434, N-((2S,3R)-3-hydroxy-4-((S)-6-isobutyl-2,2-spirocyclobutyl-3,4-dihydro-2H-pyrano[2,3-b]pyridin-4-ylamino)-1-(4-(thiazol-2-yl)phenyl)butan-2-yl)-2-methoxyacetamide] |  |  | 200 |  |  |  |  |  |  | 0.075 | 0.273 | 60 | 80 | 1.3 |  |  |
| COCC(=O)N[C@@H](Cc1cccc(F)c1)[C@H](O)CN[C@H]1CC2(CCC2)Oc2c(-c3ccnc(N(C)C)c3)cc(CC(C)(C)C)cc21 [Example 439, N-((1S,2R)-3-(((4S)-8-(2-(dimethylamino)-4-pyridinyl)-6-(2,2-dimethylpropyl)-3,4-dihydrospiro[chromene-2,1′-cyclobutan]-4-yl)amino)-1-(3-fluorobenzyl)-2-hydroxypropyl)-2-methoxyacetamide] | 0.02 | 0.005 | 1300 | 515 | 601 | 4.1 |  |  |  |  |  |  |  |  |  |  |
| CC(C)(C)Cc1cnc2c(c1)[C@@H](NC[C@@H](O)[C@H](Cc1ccc(F)cc1)NC(=O)[C@H]1CCO1)CC1(CCC1)O2 [Example 440, (2R)—N-((1S,2R)-3-(((4′S)-6′-(2,2-dimethylpropyl)-3′,4′-dihydrospiro[cyclobutane-1,2′-pyrano[2,3-b]pyridin]-4′-yl)amino)-1-((4-fluorophenyl)methyl)-2-hydroxypropyl)-2-oxetanecarboxamide] |  |  | 700 |  |  |  |  |  |  |  |  | 242 | 209 | 8.2 | 0.016 | 0.035 |
| CC(C)(C)Cc1cnc2c(c1)[C@@H](NC[C@@H](O)[C@H](Cc1ccc(F)cc1)NC(=O)[C@@H]1CCO1)CC1(CCC1)O2 [Example 441, (2S)—N-((1S,2R)-3-(((4′S)-6′-(2,2-dimethylpropyl)-3′,4′-dihydrospiro[cyclobutane-1,2′-pyrano[2,3-b]pyridin]-4′-yl)amino)-1-((4-fluorophenyl)methyl)-2-hydroxypropyl)-2-oxetanecarboxamide] |  |  | 1100 |  |  |  |  |  |  |  |  | 124 | 416 | ≥ 27 | 0.012 | 0.012 |
| COCC(=O)N[C@@H](Cc1cc(F)cc(-c2nccs2)c1)[C@H](O)CN[C@H]1CC2(CCC2)Oc2ncc(CC(C)C)cc21 [Example 695, N-((1S,2R)-1-(3-fluoro-5-(1,3-thiazol-2-yl)benzyl)-2-hydroxy-3-(((4′S)-6′-(2-methylpropyl)-3′,4′-dihydrospiro[cyclobutane-1,2′-pyrano[2,3-b]pyridin]-4′-yl)amino)propyl)-2-methoxyacetamide] | 0.004 | 0.011 | 100 | 64 | 77 | 0.5 |  |  |  |  |  |  |  |  |  |  |
| COCC(=O)N[C@@H](Cc1cc(F)cc(-c2nccs2)c1)[C@H](O)CN[C@H]1CC2(CCC2)Oc2ncc(CC(C)(C)F)cc21 [Example 724, N-((1S,2R)-3-(((4′S)-6′-(2-fluoro-2-methylpropyl)-3′,4′-dihydrospiro[cyclobutane-1,2′-pyrano[2,3-b]pyridin]-4′-yl)amino)-1-(3-fluoro-5-(1,3-thiazol-2-yl)benzyl)-2-hydroxypropyl)-2-methoxyacetamide] | 0.006 | 0.009 | 200 | 38 | 45 | 0.9 |  |  |  |  |  |  |  |  |  |  |
| COCC(=O)N[C@@H](Cc1cccc(-c2nccs2)c1)[C@H](O)CN[C@H]1CC2(CCC2)Oc2ncc(CC(C)C)cc21 [Example 757, N-((1S,2R)-2-hydroxy-3-(((4′S)-6′-(2-methylpropyl)-3′,4′-dihydrospiro[cyclobutane-1,2′-pyrano[2,3-b]pyridin]-4′-yl)amino)-1-(3-(1,3-thiazol-2-yl)benzyl)propyl)-2-methoxyacetamide] |  |  | 250 |  |  |  |  |  |  | 0.007 | 0.018 | 60 | 60 | 0.45 |  |  |
| CO[C@H](C)C(=O)N[C@@H](Cc1cc(F)cc(-c2nccs2)c1)[C@H](O)CN[C@H]1CC2(CCC2)Oc2ncc(CC(C)C)cc21 [Example 761] |  |  | 100 |  |  |  |  |  |  | 1.62 | 0.375 | 74 | 85 | 0.7 |  |  |
| CCOCC(=O)N[C@@H](Cc1ccc2c(c1)OCO2)[C@H](O)CN[C@H]1CC2(CCC2)Oc2ncc(CC(C)(C)C)cc21 [Example 772, N-((1S,2R)-1-(1,3-benzodioxol-5-ylmethyl)-3-(((4′S)-6′-(2,2-dimethylpropyl)-3′,4′-dihydrospiro[cyclobutane-1,2′-pyrano[2,3-b]pyridin]-4′-yl)amino)-2-hydroxypropyl)-2-ethoxyacetamide] |  |  | 200 |  |  |  |  |  |  | 0.021 | 0.042 | 112 | 28 | 1.1 |  |  |
| COCC(=O)N[C@@H](Cc1cc(F)cc(-c2nccs2)c1)[C@H](O)CN[C@H]1CC2(CCC2)Oc2ncc([C@@H]3CC3(C)C)cc21 [Example 773, N-((1S,2R)-3-(((4′S)-6′-((1R)-2,2-dimethylcyclopropyl)-3′,4′-dihydrospiro[cyclobutane-1,2′-pyrano[2,3-b]pyridin]-4′-yl)amino)-1-(3-fluoro-5-(1,3-thiazol-2-yl)benzyl)-2-hydroxypropyl)-2-methoxyacetamide] |  |  | 300 |  |  |  |  |  |  | 0.003 | 0.006 | 67 | 62 | 0.3 |  |  |
| CO[C@H](C)C(=O)N[C@@H](Cc1cccc(-c2nccs2)c1)[C@H](O)CN[C@H]1CC2(CCC2)Oc2ncc(CC(C)C)cc21 [Example 776, (2R)-N-((1S,2R)-2-hydroxy-3-(((4′S)-6′-(2-methylpropyl)-3′,4′-dihydrospiro[cyclobutane-1,2′-pyrano[2,3-b]pyridin]-4′-yl)amino)-1-(3-(1,3-thiazol-2-yl)benzyl)propyl)-2-methoxypropanamide] |  |  | 200 |  |  |  |  |  |  | 0.014 | 0.027 | 61 | 58 | 0.7 |  |  |
